Laboratory results: US11890335B2, “ErbB peptide pharmaceutical and vaccine compositions and therapeutic uses thereof for cancer” (L2 Diagnostics, LLC, priority 2017, dated 2024)
“Also recorded” adds a separate entry of the source. *1 amine or outer side, *2 acyl side, *3 side chain or, on linkers, in order; H or OH if unused. Where a SMILES comes first, the peptide text is derived from it. [ ]: non-standard residue; d: D form. βAsp = O=C(O)[C@H](CC(=O)[*:2])N[*:1]

Assays:
[1] = mouse, in vivo
[2] = tested on: MDA-MB-453 cells; assay: ADCC assay with human PBMC, MDA-MB-453 cells; assay type: cell-based; settings: 1:25 serum or 20 μg/ml antibody, human PBMC 50:1, 4 h, compared to rituximab
Protocol: (§1) All experimental sera were heat-inactivated (56° C., 30 min) prior to use. A431 or MDA-MB-453 cells were incubated with a 1:25 dilution of heat-inactivated sera or control antibody (20 μg/ml) 30 min at 37° C. in 96-well U bottom plates. Freshly isolated human peripheral blood mononuclear cells (PBMC) from healthy donors were incubated with antibody coated target cells at a 50:1 effector to target ratio for 4 h at 37° C. Fifty microliters of each cell culture supernatant was then assayed for lactate dehydrogenase released from dead cells using the CytoTox96 Non-Radioactive Cytotoxicity Assay (Promega) per manufacturer's instructions. Percent cytotoxicity was calculated as [(experimental-effector spontaneous-target spontaneous)/(target maximum-target spontaneous)]×100.

[3] = tested on: human EGFR on A431 cells; assay: Flow cytometry, binding to A431 cells; settings: for Staining of A431 cells by flow cytometry: serum 1:100 or cetuximab 5 μg/ml
Protocol: (§2) Cells (10^5 cells/sample) were stained with a 1:100 dilution of serum in PBS with 0.1% BSA and 0.05% sodium azide for 1 h at 4° C. Cells were washed and incubated with a 1:100 dilution of either anti-mouse IgG fluorescein isothiocyanate (FITC; Sigma) or anti-human IgG AlexaFluor 488 (Molecular Probes, Invitrogen) for 1 h at 4° C. Some samples were further stained using anti-FITC AlexaFluor 488. Cells were washed and fixed in PBS+1% paraformaldehyde. Cells were analyzed on a FACSCalibur (BD Biosciences) with FlowJo software (Tree Star). Controls included unstained cells and cells stained with secondary antibody alone.

[4] = tested on: A431 cells; assay: ADCC assay with human PBMC, A431 cells; assay type: cell-based; settings: 1:25 serum or 20 μg/ml antibody, human PBMC 50:1, 4 h
Protocol: as §1

[5] = target: native HER2 (Homo sapiens, UniProt P04626); settings: Garrett J T et al. (2007); cited from earlier work
[6] = tested on: A431 cells; settings: isotype control 10 μg/ml, data not shown
[7] = tested on: MDA-MB-453 cells; settings: control antibodies, 10-40 mg/ml concentrations tested
Protocol: Cells were incubated for three days with 1:25 dilutions of sera from either Asp or isoAsp p580 immunized Balb/c mice. Cell proliferation was measured by 3H-thymidine incorporation.

[8] = tested on: EGFR peptides; assay: ELISA, antisera against the panel of EGFR peptides; assay type: binding, murine (mu) and human (hu); settings: 100 μg peptide in CFA, boost in IFA, sera day 28
Source text: (§3) Female Balb/c or female C57BL/6 mice, 6-8 weeks old, were obtained from the National Cancer Institute. All mice were housed at the Yale University School of Medicine Animal Facility. All protocols were consistent with accepted guidelines of the National Institutes of Health for the care and use of laboratory animals as well as approved by the Yale University Institutional Animal Care and Use Committee. For the generation of antibody, three to five Balb/c or C57BL/6 mice per group were immunized intraperitoneally and subcutaneously in one footpad with 100 μg of peptide emulsified 1:1 of PBS and complete Freund's adjuvant (CFA). Twenty-one days later, mice were boosted intraperitoneally and subcutaneously in the other footpad with 100 μg of immunizing peptide emulsified in incomplete Freund's adjuvant (IFA). Sera were collected via retro-orbital bleed at day 28 for antibody analyses. For T cell assays, mice were immunized by the same route of administration with 100 μg of peptide emulsified 1:1 in CFA. […]
Polystyrene microtiter plates (Nunc) were coated with either 50 μg/ml peptide or 1 μg of rHER2 or rHER3 extracellular domains in buffer (0.05 M carbonate-bicarbonate buffer, pH 9.6; Sigma) and incubated overnight at 4° C. […] Wells were read on a SpectraMax 450 ELISA reader (Molecular Dynamics) at 405 nm.

[9] = target: T1, recombinant HER3 extracellular domain (Homo sapiens, UniProt P21860); assay: ELISA, immune serum binding to recombinant HER3 extracellular domain; settings: serum 1:100 dilution
T1 construct: Recombinant human HER3 extracellular domain was purchased from R&D Systems; purchased R&D Systems
T1 sequence (P21860 20-643 limits assumed): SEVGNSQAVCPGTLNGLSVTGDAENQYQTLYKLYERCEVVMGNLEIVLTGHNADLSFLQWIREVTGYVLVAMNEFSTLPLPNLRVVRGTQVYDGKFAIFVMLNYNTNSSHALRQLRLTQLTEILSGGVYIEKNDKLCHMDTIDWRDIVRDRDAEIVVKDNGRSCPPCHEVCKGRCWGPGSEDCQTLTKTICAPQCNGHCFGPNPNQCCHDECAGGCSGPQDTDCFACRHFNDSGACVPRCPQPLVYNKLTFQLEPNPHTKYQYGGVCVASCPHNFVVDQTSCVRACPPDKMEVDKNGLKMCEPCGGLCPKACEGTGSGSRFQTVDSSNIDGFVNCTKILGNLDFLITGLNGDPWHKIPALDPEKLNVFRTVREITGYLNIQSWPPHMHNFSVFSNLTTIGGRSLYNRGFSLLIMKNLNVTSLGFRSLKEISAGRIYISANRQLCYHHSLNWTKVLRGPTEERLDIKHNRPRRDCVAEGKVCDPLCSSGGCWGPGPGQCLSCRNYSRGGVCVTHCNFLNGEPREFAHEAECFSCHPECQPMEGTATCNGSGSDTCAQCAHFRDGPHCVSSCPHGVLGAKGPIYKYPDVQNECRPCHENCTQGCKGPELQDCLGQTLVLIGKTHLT
Protocol: (§4) Polystyrene microtiter plates (Nunc) were coated with either 50 μg/ml peptide or 1 μg of rHER2 or rHER3 extracellular domains in buffer (0.05 M carbonate-bicarbonate buffer, pH 9.6; Sigma) and incubated overnight at 4° C. Wells were washed, blocked with PBS containing 3% bovine serum albumin (BSA) followed by the addition of serum samples (1:100 dilution) for 2 h at room temperature. Alkaline phosphatase conjugated-goat anti-mouse IgG antibody (Southern Biotech) was added to the wells at a 1:1000 dilution and incubated at room temperature for 1.5 h. Wells were washed one last time, and developed by the addition of the substrate p-nitrophenyl phosphate (Sigma). Wells were read on a SpectraMax 450 ELISA reader (Molecular Dynamics) at 405 nm.

[10] = tested on: T cells from EGFR p580 immunized mice; assay: T cell proliferation assay, 3H-thymidine; assay type: cell-based; settings: lymph node cells of immunized C57BL/6 mice re-stimulated 72 h with peptide
[11] = tested on: TUBO-EGFR cells; assay: In vivo tumor assay, TUBO-EGFR cells s.c. in immunized mice; settings: immunized Balb/c mice, days 11, 13 and 18
Source text: as §3
Female Balb/c mice were immunized with either Asp or isoAsp EGFR p580 as described above for the generation of antibody. […] Tumor volume was calculated by measuring three orthogonal axes (a, b, and c) with digital calipers, with the tumor volume=abc/2 (Cho H S et al. (2003) Nature 421:756-60).

[12] = target: T2, recombinant HER2 extracellular domain (Homo sapiens, UniProt P04626); assay: ELISA, immune serum binding to recombinant HER2 extracellular domain; settings: serum 1:100 dilution
T2 construct: The extracellular domain of HER2 was a kind gift of Dr. Daniel Leahy
Protocol: as §4

[13] = target: T3, HER4 p578 peptide (Homo sapiens, UniProt Q15303); assay: ELISA, immune serum binding to HER4 p578 peptide; settings: data not shown
T3 construct: host or cells: chemical synthesis
Protocol: as §4

[14] = target: T4, HER3 p574 peptide (Homo sapiens, UniProt P21860); assay: ELISA, immune serum binding to HER3 p574 peptide; settings: sera from Balb/c mice
T4 construct: host or cells: chemical synthesis
Protocol: as §4

[15] = target: T5, HER2 p585 peptide (Homo sapiens, UniProt P04626); assay: ELISA, immune serum binding to HER2 p585 peptide; settings: sera from Balb/c mice
T5 construct: host or cells: chemical synthesis
Protocol: as §4

[16] = tested on: MDA-MB-453 cells (HER2-positive, EGFR-negative); assay: Flow cytometry, binding to MDA-MB-453 cells; design: species or system human; settings: serum 1:100 or antibody 5 μg/ml
Protocol: as §2

Immune serum binding to HER3 extracellular domain by ELISA [9]	Immune serum binding to HER2 extracellular domain by ELISA [12]	Immune serum binding to HER3 p574 peptide by ELISA [14]	Immune serum binding to HER2 p585 peptide by ELISA [15]	Compound	Staining of A431 cells by flow cytometry [3]	Antibodies elicited by immunization, binding to EGFR peptides by ELISA [8]	T cell response to Asp and iso-Asp p580 [10]	Tumor size versus adjuvant alone (PBS-CFA) [11]	Immune serum binding to homologous HER4 p578 peptide [13]	Binding to MDA-MB-453 cells by flow cytometry [16]	also measured
				IQCAHYIDGPHCVKTCPAG [EGFR p580, EGFR peptide p580-598, isoform not specified at the place (Asp and iso-Asp isoforms)]	bind to the EGFR overexpressing human A431 epidermoid carcinoma cell line at an epitope distinct from that recognized by cetuximab						Autoimmunity, fur loss or skin pathology in immunized mice [1]: no signs of aberrant tissue autoimmunity; ADCC killing of MDA-MB-453 cells [2]: significantly induced ADCC killing; ADCC killing of A431 cells [4]: exhibited significant killing
				VACAHYKDPPFCVA [p585-598 HER2 peptide]							Elicited antibodies binding to native HER2 [5]: failed to elicit antibodies that bound strongly to native HER2
				Rituximab: human anti-CD20 monoclonal antibody							A431 cell growth inhibition [6]: did not inhibit any A431 growth; MDA-MB-453 cell growth inhibition [7]: failed to inhibit
bound	bound	bound	bound	CC[C@H](C)[C@H](N)C(=O)N[C@@H](CCC(N)=O)C(=O)N[C@@H](CS)C(=O)N[C@@H](C)C(=O)N[C@@H](Cc1c[nH]cn1)C(=O)N[C@@H](Cc1ccc(O)cc1)C(=O)N[C@H](C(=O)N[C@@H](CC(=O)O)C(=O)NCC(=O)N1CCC[C@H]1C(=O)N[C@@H](Cc1c[nH]cn1)C(=O)N[C@@H](CS)C(=O)N[C@H](C(=O)N[C@@H](CCCCN)C(=O)N[C@H](C(=O)N[C@@H](CS)C(=O)N1CCC[C@H]1C(=O)N[C@@H](C)C(=O)NCC(=O)O)[C@@H](C)O)C(C)C)[C@@H](C)CC [Asp EGFR p580] (H-IQCAHYIDGPHCVKTCPAG-OH; N-terminus and C-terminus assumed)	stained A431 cells above that seen with pre-immune sera	generated antibodies against Asp and iso-Asp p580, as well as Asp and iso-Asp p572 and Asp p596	strong T cell responses to both Asp and iso-Asp p580	significantly smaller tumors	neither Asp nor isoAsp EGFR p580 antisera bound; also recorded: neither the Asp nor iso-Asp EGFR p580 antiserum bound	showed affinity	
bound	bound	bound	bound	CC[C@H](C)[C@H](N)C(=O)N[C@@H](CCC(N)=O)C(=O)N[C@@H](CS)C(=O)N[C@@H](C)C(=O)N[C@@H](Cc1c[nH]cn1)C(=O)N[C@@H](Cc1ccc(O)cc1)C(=O)N[C@H](C(=O)N[C@@H](CC(=O)NCC(=O)N1CCC[C@H]1C(=O)N[C@@H](Cc1c[nH]cn1)C(=O)N[C@@H](CS)C(=O)N[C@H](C(=O)N[C@@H](CCCCN)C(=O)N[C@H](C(=O)N[C@@H](CS)C(=O)N1CCC[C@H]1C(=O)N[C@@H](C)C(=O)NCC(=O)O)[C@@H](C)O)C(C)C)C(=O)O)[C@@H](C)CC [isoAsp EGFR p580] (H-IQCAHYI[βAsp]GPHCVKTCPAG-OH; N-terminus and C-terminus assumed)		sera bound strongly to both isoforms of p572 and Asp 596	more robust response	significantly smaller tumors	neither Asp nor isoAsp EGFR p580 antisera bound	showed affinity	Binding to A431 cells relative to Asp-isoform counterpart ([3]; flow cytometry): ~10 fold; Shift in staining intensity of A431 cells ([3]; immune sera, flow cytometry): > 10 fold; Immune serum binding to homologous HER4 p578 peptide ([13]; listed as iso-Asp EGFR p580): neither the Asp nor iso-Asp EGFR p580 antiserum bound
